What was measured:
[1] = tested on: predatory bugs; assay: Bollgard II cotton, Auscott-Togo 2012-13, Field 77 (Experiment 1): predatory bugs; format: in vivo, Hemiptera (Nabidae, Lygaeidae, Pentatomidae); conditions: 62.5 mL/ha
Protocol: (§1) Two separate trials (Experiment 1 in Field 77; Experiment 2 in Field 63) were conducted in Bollgard II cotton crops on a commercial cotton farm at Auscott-Togo near Narrabri, New South Wales from 11 Feb. to 5 Mar. 2013 (Field 77) and 19 Feb. to 6 Mar. 2013 (Field 63). The cotton used for each of the trials was at the late squaring to pod setting and maturation stages which was fairly attractive to green mirids.
(§2) In both trials, the efficacy of the following treatments against green mirids and predatory insects was evaluated: • 1. 250 mL/ha DAT 511 spore in oil (1×10^7 spores/ml); • 2. 500 mL/ha DAT 511 spore in oil (1×10^7 spores/ml); • 3. 1 L/ha DAT 511 spore in oil (1×10^7 spores/ml); • 4. 62.5 mL/ha of fipronil; and • 5. Unsprayed (negative control).
(§3) The treatment plots were arranged in a randomized complete block design with six replicates per treatment. Each replicated plot measured 40 m wide (40 rows) and 90 m long.
(§4) Foliar application of each treatment was made on 28 Feb. (for both green mirids and beneficial insects) and 13 Mar. 2012 (for beneficial insects alone) using a ground spray rig fitted with flat fan nozzles to achieve a droplet size of 200 μm. The treatment was applied during the mornings when temperatures were between 20° C. and 28° C. The timing of treatment was based on the IPM Guidelines and recommendations by CottonLogic to use an economic threshold of 0.5 green mirids per metre (Deutscher and Wilson 1999; Khan et al. 2004).
(§5) Pre-treatment counts of green mirid adults and nymphs, predatory beetles, predatory bugs, predatory lacewings and spiders were made by visual inspection of whole cotton plants. Both adults and nymphs of beneficial insects were counted. Plants were assessed in randomly selected one-metre lengths of row of each replicate (i.e. 6 m per treatment). Post-treatment counts were made 3, 7, 14 and 21 days after treatment. Data are expressed as numbers of green mirid adults and nymphs counted per metre for each treatment.

[2] = tested on: predatory bugs; assay: Foliar spray trial on Bollgard II cotton, Norwood 2010-11 (Example 7): predatory bugs; format: in vivo, Hemiptera (Nabidae, Lygaeidae, Pentatomidae); conditions: fipronil 62.5 mL/ha; for number of predatory bugs per meter: 1st spray, BC 667/DAT 511 0.50 L/ha; for number of predatory bugs per metre: 2nd spray, BC 667/DAT 511 0.5 L/ha
Protocol: The trial was conducted on commercial Bollgard II® cotton crops at Norwood near Moree, NSW from 5 Dec. 2010 to 19 Feb. 2011. The cotton was at the early squaring stage, when it was attractive to green mirids (Khan et al. 2004).
The study evaluated the efficacy of the following treatments against green mirids, green vegetable bugs and predatory insects: • 1. 500 mL/ha BC 667 spore in oil (1×10^7 spores/ml); • 2. 500 mL/ha DAT 511 spore in oil (1×10^7 spores/ml); • 3. 62.5 mL/ha Fipronil (conventional insecticide); and • 4. Unsprayed (control).
The treatment plots were arranged in a randomized complete block design with four replicates per treatment. Each replicated plot measured 0.5 ha. Foliar application of each treatment was made on 18 Jan. 2011 using a ground spray rig fitted with flat fan nozzles to achieve a droplet size of 80 250 μm. The treatment was applied in the mornings when temperature was between 20° C. and 28° C. The timing of treatment was based on an economic threshold of 0.5 green mirids per metre, the IPM guideline and recommendation by CottonLogic.
Pre-treatment counts of green mirid adults and nymphs, predatory beetles, predatory bugs, predatory lacewings and spiders were made by visual inspection of whole cotton plants. Both adults and nymphs of the beneficial insects were counted. Plants were assessed in randomly selected one-metre lengths of row of each treatment replicate (i.e. four metres per treatment). In all, two spray applications of each treatment were made. The first spray was made on 18 Jan. 2011. Post-treatment counts of the first spray application were taken 3, 7 and 14 days after treatment (DAT) (first spray). A second spray application was done on 1 Feb. 2011 when green mirid adults plus nymphs reached the threshold of 0.5 per metre. Post-treatment counts of the second spray application were taken 3, 7, 14, 21 and 28 DAT. Data are expressed as numbers of individuals of that species counted per metre for each treatment.

[3] = tested on: green mirid adults and nymphs; assay: Bollgard II cotton, Auscott-Togo 2012-13, Field 63 (Experiment 2): green mirids; format: in vivo, Creontiades dilutus; conditions: 62.5 mL/ha
Protocol: as §1, §2, §3, §4, §5

[4] = tested on: predatory beetles; assay: Bollgard II cotton, Auscott-Togo 2012-13, Field 63 (Experiment 2): predatory beetles; format: in vivo, Coleoptera (Coccinellidae, Melyridae); conditions: 62.5 mL/ha
Protocol: as §1, §2, §3, §4, §5

[5] = tested on: spiders; assay: Rate trial on conventional cotton, Norwood 2012 (Example 10): spiders; format: in vivo, Lycosa spp., Oxyopes spp., Salticidae spp., Araneus spp.; conditions: P>0.05
Protocol: This trial was conducted on commercial conventional cotton crops on a farm at Norwood (29° 28'S, 149° 50′E) near Moree, NSW, from 28 Feb. to 21 Mar. 2012. The cotton used for the trial was at the early squaring stage, when it was attractive to green mirids (Khan et al. 2004).
The efficacy of the following treatments against green mirids and predatory insects were evaluated: • 1. 250 mL/ha DAT 511 spore in oil (1×10^7 spores/ml); • 2. 500 mL/ha DAT 511 spore in oil (1×10^7 spores/ml); • 3. 1 L/ha DAT 511 spore in oil (1×10^7 spores/ml); • 4. 62.5 mL/ha of Fipronil; and • 5. Unsprayed (negative control).
as §3
Foliar application of each treatment was made on 28 Feb. (for both green mirids and beneficial insects) and 13 Mar. […]
Pre-treatment counts of adult and nymph green mirids, predatory beetles, predatory bugs, predatory lacewings and spiders were made by visual inspection of whole cotton plants. Both adults and nymphs of beneficial insects were counted. Plants were assessed in randomly selected one-metre lengths of row of each treatment replicate (i.e. 6 m per treatment). […] Data are expressed as numbers of green mirid adults and nymphs counted per metre per treatment.

N#Cc1nn(-c2c(Cl)cc(C(F)(F)F)cc2Cl)c(N)c1[S+]([O-])C(F)(F)F (centres unmarked) [fipronil]
number of predatory bugs per meter ([1]; 3 DAT): 0.33 ± 0.00 a per meter | number of predatory bugs per meter ([1]; 7 DAT): 0.00 ± 0.00 a per meter | number of predatory bugs per meter ([1]; 14 DAT): 0.00 ± 0.00 a per meter | number of predatory bugs per meter ([1]; 21 DAT): 0.67 ± 0.33 a per meter | number of predatory bugs per meter ([1]; pre-spray counts): 0.33 ± 0.33 a per meter | number of predatory bugs per meter ([2]; 3 DAT): 0.33 ± 0.33 a per meter | number of predatory bugs per meter ([2]; 7 DAT): 0.67 ± 0.33 a per meter | number of predatory bugs per meter ([2]; 14 DAT): 1.33 ± 0.33 a per meter | number of predatory bugs per meter ([2]; pre-spray counts 18 Jan. 2011): 0.67 ± 0.33 a per meter | number of predatory bugs per metre ([2]; 3 DAT): 0.33 ± 0.33a per metre | number of predatory bugs per metre ([2]; 7 DAT): 0.33 ± 0.33a per metre | number of predatory bugs per metre ([2]; 14 DAT): 0.67 ± 0.33a per metre | number of predatory bugs per metre ([2]; 21 DAT): 1.00 ± 0.58a per metre | number of predatory bugs per metre ([2]; 28 DAT): 0.67 ± 0.33a per metre | number of predatory bugs per metre ([2]; pre-spray counts 1 Feb. 2011): 1.33 ± 0.33a per metre | No. green mirid adults and nymphs per meter ([3]; 3 DAT): 0.33 ± 0.33 a per meter | No. green mirid adults and nymphs per meter ([3]; 7 DAT): 0.00 ± 0.00 a per meter | No. green mirid adults and nymphs per meter ([3]; 14 DAT): 0.33 ± 0.33 a per meter | No. green mirid adults and nymphs per meter ([3]; 21 DAT): 0.00 ± 0.00 a per meter | No. green mirid adults and nymphs per meter ([3]; pre-spray counts): 1.67 ± 0.33 a per meter | No. predatory beetles per meter ([4]; 3 DAT): 2.67 ± 0.33 a per meter | No. predatory beetles per meter ([4]; 7 DAT): 2.33 ± 0.33 a per meter | No. predatory beetles per meter ([4]; 14 DAT): 0.67 ± 0.33 a per meter | No. predatory beetles per meter ([4]; 21 DAT): 1.67 ± 0.33 a per meter | No. predatory beetles per meter ([4]; pre-spray counts): 5.67 ± 0.67ab per meter | number of spiders versus unsprayed (control) plots [5]: No significant difference
